Reference: the NIST ThermoML archive (doi:10.1016/j.jct.2013.09.017)
Numbers after ± are expanded uncertainties.

Experiment: xn = mol fraction of the nth substance listed
Conditions: 101 kPa, Liquid; for viscosity: Capillary tube (Ostwald / Ubbelohde) method; for mass density: Vibrating tube method

CCCCCCCCN(CCCCCCCC)CCCCCCCC [trioctylamine] + CCCCCCC
viscosity (283.15 K, x1 = 0.0102): 0.494 ± 0.011 mPa·s
viscosity (283.15 K, x1 = 0.103): 0.856 ± 0.019 mPa·s
viscosity (283.15 K, x1 = 0.2636): 1.827 ± 0.04 mPa·s
viscosity (283.15 K, x1 = 0.3223): 2.321 ± 0.051 mPa·s
viscosity (283.15 K, x1 = 0.409): 3.241 ± 0.072 mPa·s
viscosity (283.15 K, x1 = 0.5079): 4.499 ± 0.1 mPa·s
viscosity (283.15 K, x1 = 0.5997): 5.814 ± 0.13 mPa·s
viscosity (283.15 K, x1 = 0.7019): 7.438 ± 0.17 mPa·s
viscosity (283.15 K, x1 = 0.8063): 9.477 ± 0.22 mPa·s
viscosity (283.15 K, x1 = 0.906): 11.64 ± 0.27 mPa·s
viscosity (283.15 K, x1 = 1): 14.25 ± 0.34 mPa·s
mass density (283.15 K, x1 = 0.0102): 696.37 ± 0.26 kg/m3
mass density (283.15 K, x1 = 0.103): 726.07 ± 0.27 kg/m3
mass density (283.15 K, x1 = 0.2636): 759.83 ± 0.31 kg/m3
mass density (283.15 K, x1 = 0.3223): 768.63 ± 0.33 kg/m3
mass density (283.15 K, x1 = 0.409): 779.4 ± 0.36 kg/m3
mass density (283.15 K, x1 = 0.5079): 789.24 ± 0.4 kg/m3
mass density (283.15 K, x1 = 0.5997): 796.55 ± 0.44 kg/m3
mass density (283.15 K, x1 = 0.7019): 803.32 ± 0.48 kg/m3
mass density (283.15 K, x1 = 0.8063): 808.97 ± 0.53 kg/m3
mass density (283.15 K, x1 = 0.906): 813.43 ± 0.59 kg/m3
mass density (283.15 K, x1 = 1): 817.08 ± 0.64 kg/m3
viscosity (293.15 K, x1 = 0.0102): 0.44 ± 0.01 mPa·s
viscosity (293.15 K, x1 = 0.103): 0.738 ± 0.016 mPa·s
viscosity (293.15 K, x1 = 0.2636): 1.51 ± 0.033 mPa·s
viscosity (293.15 K, x1 = 0.3223): 1.899 ± 0.042 mPa·s
viscosity (293.15 K, x1 = 0.409): 2.57 ± 0.057 mPa·s
viscosity (293.15 K, x1 = 0.5079): 3.464 ± 0.078 mPa·s
viscosity (293.15 K, x1 = 0.5997): 4.377 ± 0.1 mPa·s
viscosity (293.15 K, x1 = 0.7019): 5.434 ± 0.13 mPa·s
viscosity (293.15 K, x1 = 0.8063): 6.792 ± 0.16 mPa·s
viscosity (293.15 K, x1 = 0.906): 8.231 ± 0.19 mPa·s
viscosity (293.15 K, x1 = 1): 9.957 ± 0.24 mPa·s
mass density (293.15 K, x1 = 0.0102): 688.04 ± 0.26 kg/m3
mass density (293.15 K, x1 = 0.103): 718.22 ± 0.27 kg/m3
mass density (293.15 K, x1 = 0.2636): 752.47 ± 0.31 kg/m3
mass density (293.15 K, x1 = 0.3223): 761.41 ± 0.33 kg/m3
mass density (293.15 K, x1 = 0.409): 772.31 ± 0.36 kg/m3
mass density (293.15 K, x1 = 0.5079): 782.28 ± 0.39 kg/m3
mass density (293.15 K, x1 = 0.5997): 789.72 ± 0.43 kg/m3
mass density (293.15 K, x1 = 0.7019): 796.55 ± 0.48 kg/m3
mass density (293.15 K, x1 = 0.8063): 802.27 ± 0.53 kg/m3
mass density (293.15 K, x1 = 0.906): 806.79 ± 0.58 kg/m3
mass density (293.15 K, x1 = 1): 810.48 ± 0.64 kg/m3
viscosity (303.15 K, x1 = 0.0102): 0.394 ± 0.009 mPa·s
viscosity (303.15 K, x1 = 0.103): 0.642 ± 0.014 mPa·s
viscosity (303.15 K, x1 = 0.2636): 1.269 ± 0.028 mPa·s
viscosity (303.15 K, x1 = 0.3223): 1.569 ± 0.035 mPa·s
viscosity (303.15 K, x1 = 0.409): 2.055 ± 0.046 mPa·s
viscosity (303.15 K, x1 = 0.5079): 2.734 ± 0.062 mPa·s
viscosity (303.15 K, x1 = 0.5997): 3.374 ± 0.077 mPa·s
viscosity (303.15 K, x1 = 0.7019): 4.107 ± 0.095 mPa·s
viscosity (303.15 K, x1 = 0.8063): 5 ± 0.12 mPa·s
viscosity (303.15 K, x1 = 0.906): 5.972 ± 0.14 mPa·s
viscosity (303.15 K, x1 = 1): 7.114 ± 0.17 mPa·s
mass density (303.15 K, x1 = 0.0102): 679.6 ± 0.26 kg/m3
mass density (303.15 K, x1 = 0.103): 710.29 ± 0.27 kg/m3
mass density (303.15 K, x1 = 0.2636): 745.07 ± 0.31 kg/m3
mass density (303.15 K, x1 = 0.3223): 754.13 ± 0.33 kg/m3
mass density (303.15 K, x1 = 0.409): 765.19 ± 0.36 kg/m3
mass density (303.15 K, x1 = 0.5079): 775.31 ± 0.39 kg/m3
mass density (303.15 K, x1 = 0.5997): 782.85 ± 0.43 kg/m3
mass density (303.15 K, x1 = 0.7019): 789.77 ± 0.48 kg/m3
mass density (303.15 K, x1 = 0.8063): 795.57 ± 0.53 kg/m3
mass density (303.15 K, x1 = 0.906): 800.15 ± 0.58 kg/m3
mass density (303.15 K, x1 = 1): 803.88 ± 0.63 kg/m3
